Test results as given in patent US12319752B2, “Heparin-binding cationic peptide self-assembling peptide amphiphiles useful against drug-resistant bacteria” (priority 2016, dated 2025).
Residues, ends and D or L forms follow the SMILES beside them. *: point of attachment. Palmitoyl = CCCCCCCCCCCCCCCC(=O)*

Key:
[1] = Critical micelle concentration (CMC) by Nile Red fluorescence; type: physicochemical; settings: in water, Nile Red dye
Text: First, the solvatochromic probe Nile Red was used to examine the threshold concentrations for the spontaneous aggregation induced by hydrophobic collapse of peptides. Once the supramolecular structures of PA self-assemble in water at their CMC, the Nile Red dye can be solubilized in the hydrophobic cores of the PA assemblies, displaying an enhanced fluorescent intensity. Consequently, the fluorescent intensity maxima of Nile Red were at the emission wavelength of 630 nm in the solutions of CVK-PA and ACA-PA, whereas the emission wavelength was located at 660 nm in the Bi-Cardin peptide solutions (FIG. 4A-4D). […] To estimate the CMC of each peptide, the corrected fluorescent intensity (If,corrected) of Nile Red at its emission wavelength for each peptide solution was calculated using equation: If,corrected=If,sample−If,water, where If,sample is the average of the triplicate fluorescent intensity measurements in the sample and If,water is the fluorescent intensity of Nile Red in water without the peptide. The measurements of the corrected fluorescent intensity were plotted against the log 10 values of concentration of each peptide, then the CMC value was determined at the point of intersection of the plot of log peptide concentration and fluorescent intensity of Nile Red.

S. aureus = assay: Bacterial growth inhibition (growth curves, OD562, 20 h); type: cell-based, Staphylococcus aureus (ATCC #25923)
Method: Gram-positive (S. aureus and MRSA) and Gram-negative (E. coli and MDR E. coli) bacteria were incubated with peptide concentrations ranging from 20 to 100 μM, and time-lapsed bacterial growth was monitored for 20 hours by determining the optical density at 562 nm (O.D. 562 nm). […] At the highest concentration tested (100 μM), the time to exponential growth phase of S. aurues was delayed by about 18 h (FIG. 5B), and was prolonged by almost 13 h for MRSA (FIG. 5A), while bacteria incubated without ACA-PA entered the exponential growth phase within 4 h. Gram-positive bacteria were also susceptible to the ACA-PA even below their CMC.
This assay was performed to investigate the inhibitory effects of each peptide against Gram-positive Staphylococcus aureus (S. aureus, ATCC #25923) and methicillin-resistant S. aureus (MRSA, ATCC #43300), as well as Gram-negative Escherichia coli (E. coli, ATCC #25922), and multidrug-resistant E. coli (MDR E. coli, ATCC #BAA-2471). In all experiments, solutions of each peptide at the concentrations from 20 μM to 100 μM in 3% Tryptic Soy Broth (TSB) media were freshly prepared. A single colony of bacteria was isolated from a stock agar plate and cultured overnight in 4 mL of 3% TSB on a shaking incubator set at 200 rpm and 37° C. The bacteria culture was adjusted to an optical density at 562 nm (OD562) to about 0.52 (10^9 cells/mL), and the resulting bacteria suspension was subsequently diluted to about 10^6 colony forming units (CFU) per mL in each sample. The control samples were bacteria incubated in TSB media without peptides. The bacteria were incubated inside a spectrophotometer (Spectra-Max Paradigm, Molecular Devices, Sunnyvale, CA) at 37° C. under static conditions for 20 h, and the bacterial growth curves were measured in terms of turbidity at OD562 every 2 minutes. The normalized OD562 values of samples were calculated by subtracting the […].

MRSA = assay: Live/dead bacterial viability assay; type: cell-based, methicillin-resistant S. aureus (MRSA); settings: 4 h
Text: To further investigate bacteria viability after treatment with ACA-PA, the live/dead assay was used to confirm the antibacterial actions of ACA-PA. Dead bacteria with disrupted membrane were stained a first color, whereas live bacteria were stained with a second color fluorescence. A large amount of robust MRSA bacteria in the untreated control sample appeared a second color and in spherical shapes (FIG. 10A). […] This antibacterial activity was dependent on the concentration of PA, yet was not determined by peptide self-assembly. Nonetheless, Gram-negative MDR E. coli responded to the treatment of ACA-PA differently from Gram-positive MRSA.
The live/dead bacterial viability assay was conducted to further assess the bactericidal efficacy of ACA-PA using the LIVE/DEAD BacLight Bacterial Viability Kits (Kits 71007, Molecular Probes, Eugene, OR, USA). MRSA and MDR E. coli bacteria (100 μl, 10^6 CFU/mL) were incubated with 80 μM and 40 μM of peptide in 3% TSB media at 37° C. for 4 h on a 96-well plate, and the control samples of bacteria were incubated in 3% TSB media only. […] The live bacteria stained fluorescent a second color (SYTO9 nucleic acid stain), whereas the dead bacteria with disrupted membranes stained fluorescent a first color (propidium iodide, PI).

With `CCCCCCCCCCCCCCCC(=O)N[C@H](C(=O)N[C@H](C(=O)N[C@H](C(=O)N[C@H](C(=O)N[C@@H](CCCCN)C(=O)N[C@@H](CCCCN)C(=O)N[C@@H](CCCCN)C(=O)N[C@@H](CCCCN)C(=O)NCC(=O)N[C@@H](C)C(=O)N[C@@H](CCCCN)C(=O)N[C@@H](CCCCN)C(=O)N[C@@H](C)C(=O)N[C@@H](CCCNC(=N)N)C(=O)N[C@@H](C)C(=O)N[C@@H](C)C(=O)N[C@@H](CCCCN)C(=O)N[C@@H](CCCCN)C(=O)N[C@@H](C)C(=O)N[C@@H](CCCNC(=N)N)C(=O)N[C@@H](C)C(=O)O)C(C)C)C(C)C)C(C)C)C(C)C` [ACA-PA, C16-V4K4G(AKKARA)2 (SEQ ID NO: 7)] (Palmitoyl-VVVVKKKKGAKKARAAKKARA-OH; N-terminus and C-terminus assumed) the CMC [1] was 45.7 µM, the “delay of time to exponential growth phase” value (S. aureus; 100 μM) was “about 18 h” and the bacterial growth inhibition (S. aureus; 20 to 100 μM, 20 h) was “remarkably inhibited the proliferation”. For the same molecule, the “susceptibility of bacterial growth” value (S. aureus; below the CMC) was “susceptible”, the “bacterial viability (live/dead staining)” value (MRSA; 40 μM) was “markedly reduced MRSA viability” and the “bacterial viability (live/dead staining)” value (MRSA; 80 μM) was “coverage of dead bacteria increased with low density of live bacteria”.
